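Cultured in 96-well plates, cells were exposed to test compound for 48 hours across five concentrations. GI50: concentration for 50% inhibition of growth. At the TGI there is no net growth.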

Experiment in all cases: NCI anticancer screen, dose series, 48 h
The subject of assay [1] is 786-0 renal.
Assay [2] has as its system ACHN renal.
The test system of assay [3] is DU-145 prostate.
Assay [4] deals with MOLT-4 leukemia.
Assay [5] deals with SF-268 CNS.
In assay [6] the test system is SK-MEL-2 melanoma.
Assay [7] deals with SK-MEL-5 melanoma.
Assay [8] has as its system SNB-75 CNS.
The subject of assay [9] is UACC-62 melanoma.
The subject of assay [10] is OVCAR-4 ovarian.

Consider `O=C1C=CC(=O)N1c1cccc(N2C(=O)C=CC2=O)c1`, for which the GI50 is 1.84 µM in assay [1]; 1.77 µM in assay [2]; 10.9 µM in assay [3]; 2.74 µM in assay [4]; 7.09 µM in assay [5]; 2.52 µM in assay [6]. Also, the figures for the GI50 in [7], in [8] and in [9] were 10.9 µM, 4.71 µM and 2.48 µM, respectively. Also, the TGI in [1] turned out to be 3.44 µM; in assay [2], 3.21 µM; in assay [3], 22.8 µM; in [4], 7.73 µM; in assay [5] it was 19.8 µM; in assay [6], 5.55 µM. In addition, the TGI in assay [7] stood at 23 µM; in assay [8], 18.3 µM; in assay [9] it was 9.46 µM.
On to `Cc1cc2c(C(N)=O)c(N)n(-c3c(C)ccc(O)c3C)c2nc1C`, for which the GI50 was 3.37 µM in assay [1]; 1.84 µM in assay [2]; 4.16 µM in assay [3]; 2.86 µM in [4]; 0.998 µM in [10]; 9.28 µM in [5]. For the same compound, the GI50 in assay [6] was 3.59 µM; in [7], 4.89 µM; in [8], 1.05 µM. The TGI was above 100 µM in [1]; 10.5 µM in assay [2]; 19.7 µM in assay [3]; above 100 µM in [4]; 8.03 µM in [10]; 52.9 µM in [5]. Besides, the TGI in assay [6] stood at 21.2 µM; in assay [7] it was 26.3 µM; in assay [8], 8.3 µM.
On to `CCCCCCCCCCCCCCCCCCOCC(CCP(=O)(CP(=O)(O)O)Oc1ccccc1)OCCCCCCCCCCCCCCCCCC` (stereo not drawn), for which the TGI in assay [1], in [2], in assay [3], in assay [4], in assay [10] and in [5] was above 100 µM each time. The TGI in assay [7], in [8] and in assay [9] was above 100 µM throughout.
With `CC(C(N)C(=O)NC(C(=O)O)C1OC(n2ccc(=O)[nH]c2=O)C(O)C1O)C(O)c1ccc(O)cn1` (stereo not drawn), the TGI in assay [1], in [2], in [3], in assay [4], in assay [5] and in [6] was above 100 µM in each case. For the same compound, the TGI in [7], in assay [8] and in [9] was above 100 µM in each case.
With `NS(=O)(=O)CC1CC[CH-]CC1.[Cl-].[Cl-].[Cl-].[Cl-].[Cl-].[Sb+5].c1ccncc1`, the GI50 in [1], in assay [2], in assay [3], in assay [10], in [5] and in assay [6] was above 100 µM throughout. In addition, the GI50 in assay [7], in [8] and in [9] was above 100 µM in each case. The TGI in [1], in assay [2], in [3], in assay [10], in assay [5] and in assay [6] was above 100 µM in each case. For the same compound, the TGI in assay [7], in [8] and in assay [9] was above 100 µM each time.
For the compound `CO/N=C(\COc1ccc2oc(-c3ccccc3)cc(=O)c2c1)c1ccc(OC)cc1`, the GI50 is 21.9 µM in assay [1]; 23.4 µM in assay [2]; 31 µM in [3]; 19.7 µM in [10]; 31 µM in assay [6]; 22.2 µM in [7]. In addition, the GI50 was 25.4 µM in assay [8] and 27 µM in assay [9]. In addition, the TGI in assay [1] was 48.9 µM; in [2], 51.9 µM; in [3], above 100 µM; in assay [10] it was 73.9 µM; in [6], above 100 µM; in assay [7], 46.7 µM. For the same compound, the TGI turned out to be 54.5 µM in assay [8] and 84.7 µM in [9].
On to `N#Cc1cc(S(=O)(=O)Nc2nnc(-c3ccccc3)c(-c3ccccc3)n2)c(SCc2ccccc2)cc1Cl`, for which the GI50 is 24.6 µM in [1]; 21.5 µM in [2]; 20.1 µM in assay [3]; 9.82 µM in [4]; 33.9 µM in [10]; 29.2 µM in assay [5]. The GI50 was 41.8 µM in [6], 23 µM in assay [7] and 20.5 µM in [9]. For the same compound, the TGI was 64.1 µM in assay [1]; 42.6 µM in [2]; 41.6 µM in assay [3]; above 100 µM in [4]; 87 µM in assay [10]; above 100 µM in [5]. The values for the TGI in [6], in assay [7] and in assay [9] were above 100 µM, 51.4 µM and 48.7 µM, respectively.
`N#CC1(C#N)C2C=CC(c3coc4cccc2c34)C1(C#N)C#N` (stereo not drawn): the TGI was 34.8 µM in [1]; 17 µM in assay [2]; 6.35 µM in assay [4]; 47.9 µM in assay [10]; 20.3 µM in assay [5]; 92.6 µM in [6]. Moreover, the TGI in assay [7] amounted to 28.8 µM; in assay [8] it was 35.3 µM; in [9], 24.4 µM.
Turning to `C/C(=N\NC(=S)SCc1ccccc1)c1ccccn1`, the TGI in assay [1] turned out to be 10.2 µM; in assay [2], 1.95 µM; in assay [3], 16.9 µM; in assay [10], 1.52 µM; in [5] it was 11.4 µM; in [6], 11.6 µM. Besides, the TGI in [7] was 5.56 µM; in assay [8], 13.7 µM; in [9], 4.69 µM.
With `O=C(CCn1[nH]c(=O)c(Cl)c(Cl)c1=O)NNC(=O)C[n+]1ccccc1`, the TGI in assay [1], in [2], in assay [4], in assay [10], in assay [5] and in assay [6] was above 100 µM in each case. Also, the TGI in assay [7], in assay [8] and in [9] was above 100 µM in each case.

The values above are taken from PubChem BioAssay (NCI).
